From PubChem BioAssay AID2060494 (Molecular Pharmacology Branch, DTP, NCI, 2025)
pIC50: −log10 of the molar value. Several values for one entry are separate records, joined by “and”; a condition that tells them apart may be missing. Identical values can stand only once. One block for each compound: values may come before it.

System: 435261-313-R-J1-PDC complex spheroid viability
Assay: Anticancer human tumor 435261-313-R-J1-PDC patient-derived colon adenocarcinoma cell line growth inhibition [GQUAD]
Conditions: for viability, T/C: stronger effect = lower value
From the text: DNA G-quadruplex Stabilizer Agents in Combinations in Complex Spheroids
A high-throughput screen of multi-cell type tumor spheroids was designed to identify active combinations of DNA G-quadruplex stabilizer agents and targeted small molecules. Complex spheroids include a stromal component modeled by human endothelial cells (HUVEC) and fibroblasts modeled by human mesenchymal stem cells (MSCs). The concentration ranges selected for each drug and investigational agent were based upon clinically achievable concentrations if the clinical Cmax of the agent was known.
Compounds. The drugs and investigational agents: pidnarulex (CX-5461; NSC782164), APTO-253 (NSC789042), BRACO-19 (NSC847499), peposertib (NSC802822), ceralasertib (NSC780249), elimusertib (NSC800525), camonsertib (NSC841442), AZD-1390 (NSC803789), olaparib (NSC753686), talazoparib (NSC767125), ART-558 (NSC835418), sotorasib (NSC818433), MRTX-1133 (NSC836407), SN-38 (NSC673596), topotecan (NSC609699), etoposide (NSC141540), doxorubicin (NSC123127), gemcitabine (NSC613327), 5-fluorouracil (NSC19893), paclitaxel (NSC125973), vemurafenib (NSC761431), panobinostat (NSC761190), R-306465 (JNJ-16241199; NSC773264), adavosertib (NSC754352), TP-3654 (NSC805149), carboplatin (NSC241240), KSQ-4279 (NSC840948), and staurosporine (NSC755774) were obtained from the National Cancer Institute (NCI) Developmental Therapeutics Program Chemical Repository (34). The FDA-approved anticancer drug set is available from the NCI Developmental Therapeutics Program. […] The stock solutions were prepared in dimethyl sulfoxide (DMSO, Sigma-Aldrich, St. Louis, MO, cat. D2650) at 800-fold the tested concentration and stored at -70 degrees C prior to their use. All drugs and investigational agents were tested over a range starting from a high concentration at or near the clinical Cmax and decreasing in half-log increments. If the clinical Cmax for an agent had not been determined, the highest concentration tested was 10 microM.
2.3 Cell Culture. All cells were maintained in an incubator at 37 degrees C and 5% CO2 with 95% humidity. The PDC lines were cultured according to standard operating procedures established by the NCI PDMR. All PDCs were thawed and cultured in Matrigel-coated flasks prepared with a working solution of 1X Ham's F-12 nutrient mix, without supplementation (Invitrogen, cat. 11765054), 100 U/mL penicillin-streptomycin (Invitrogen, cat. 15140122), and 2.5% Matrigel (Corning Inc., cat. 354248) for the first three passages. The 857933-349-R-J2-PDC line was cultured in 6C/Colon 1B media, which includes advanced DMEM/F-12 (Thermo Fisher Scientific, cat. 12634028), 10 mM HEPES (Thermo Fisher Scientific, cat. 15630080), 1X GlutaMAX supplement (Thermo Fisher Scientific, cat. 35050061), 0.1 mg/mL primocin (InvivoGen, cat. ant-pm-2), 10% defined fetal bovine serum, heat inactivated (HyClone Laboratories Inc., cat. SH30070.03HI), 50% L-WRN conditioned media (ATCC, cat. CRL-3276), 1.25 mM N-Acetyl-L-cysteine (Sigma-Aldrich, cat. A9165), 10 mM nicotinamide (Sigma-Aldrich, cat. N0636), 1X B-27 supplement (Thermo Fisher Scientific, cat. 17504044), 1X N-2 supplement (Thermo Fisher Scientific, cat. 17502048), 10 microM Y-27632 dihydrochloride (Tocris Bioscience, cat. 1254), and 50 ng/mL human EGF recombinant protein (Thermo Fisher Scientific, cat. PHG0311). The 485176-168-R4-J1-PDC line was cultured in Panc media, which includes all 6C/Colon 1B media components plus 100 ng/mL human FGF-10 (Thermo Fisher Scientific, cat. 100-26), 500 nM SB-431542 (Selleckchem, cat. S1067), and gastrin (Tocris, cat. 3006).
[…]
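Further: spheroids exposed to the agents for seven days before readout.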
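Wherever viability, T/C is given: percent of vehicle control viability with DMSO wells as 100%.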

SMILES: CC1COCCN1c1cc(C2(S(C)(=N)=O)CC2)nc(-c2ccnc3[nH]ccc23)n1 (centres undefined) + Cc1[nH]c2ccc(F)cc2c1-c1nc2c3cccnc3c3ncccc3c2[nH]1
pIC50 (curve of first compound, second compound 0.0316 µM): < 5.00
pIC50 (curve of first compound, second compound 0.1 µM): < 5.00
pIC50 (curve of first compound, second compound 0.316 µM): 5.49
pIC50 (curve of first compound, second compound 1 µM): 5.89
pIC50 (curve of first compound, second compound 3.16 µM): > 7.50
pIC50 (curve of first compound, second compound 10 µM): > 7.50
viability, T/C (second compound 0.0316 µM, first compound 0.0316 µM): 111%
viability, T/C (second compound 0.0316 µM, first compound 0.1 µM): 85.9%
viability, T/C (second compound 0.0316 µM, first compound 0.316 µM): 107%
viability, T/C (second compound 0.0316 µM, first compound 1 µM): 60.5%
viability, T/C (second compound 0.0316 µM, first compound 3.16 µM): 66%
viability, T/C (second compound 0.0316 µM, first compound 10 µM): 52.2%
viability, T/C (second compound 0.1 µM, first compound 0.0316 µM): 93%
viability, T/C (second compound 0.1 µM, first compound 0.1 µM): 106%
viability, T/C (second compound 0.1 µM, first compound 0.316 µM): 90.5%
viability, T/C (second compound 0.1 µM, first compound 1 µM): 83.7%
viability, T/C (second compound 0.1 µM, first compound 3.16 µM): 80.2%
viability, T/C (second compound 0.1 µM, first compound 10 µM): 55.4%
viability, T/C (second compound 0.316 µM, first compound 0.0316 µM): 94.2%
viability, T/C (second compound 0.316 µM, first compound 0.1 µM): 127%
viability, T/C (second compound 0.316 µM, first compound 0.316 µM): 74.8%
viability, T/C (second compound 0.316 µM, first compound 1 µM): 106%
viability, T/C (second compound 0.316 µM, first compound 3.16 µM): 50.1%
viability, T/C (second compound 0.316 µM, first compound 10 µM): 47.9%
viability, T/C (second compound 1 µM, first compound 0.0316 µM): 54.4%
viability, T/C (second compound 1 µM, first compound 0.1 µM): 65.6%
viability, T/C (second compound 1 µM, first compound 0.316 µM): 68%
viability, T/C (second compound 1 µM, first compound 1 µM): 52.6%
viability, T/C (second compound 1 µM, first compound 3.16 µM): 36.4%
viability, T/C (second compound 1 µM, first compound 10 µM): 30%
viability, T/C (second compound 3.16 µM, first compound 0.0316 µM): 29.6%
viability, T/C (second compound 3.16 µM, first compound 0.1 µM): 37.1%
viability, T/C (second compound 3.16 µM, first compound 0.316 µM): 30.3%
viability, T/C (second compound 3.16 µM, first compound 1 µM): 28.9%
viability, T/C (second compound 3.16 µM, first compound 3.16 µM): 21.6%
viability, T/C (second compound 3.16 µM, first compound 10 µM): 12.2%
viability, T/C (second compound 10 µM, first compound 0.0316 µM): 30.7%
viability, T/C (second compound 10 µM, first compound 0.1 µM): 22.6%
viability, T/C (second compound 10 µM, first compound 0.316 µM): 28.1%
viability, T/C (second compound 10 µM, first compound 1 µM): 18.4%
viability, T/C (second compound 10 µM, first compound 3.16 µM): 14.9%
viability, T/C (second compound 10 µM, first compound 10 µM): 8.85%

SMILES: O=C(NO)c1cnc(N2CCN(S(=O)(=O)c3ccc4ccccc4c3)CC2)nc1
viability, T/C (compound 0.0316 µM): 97.4%
viability, T/C (compound 0.1 µM): 68.3%
viability, T/C (compound 0.316 µM): 52.4%
viability, T/C (compound 1 µM): 35.2%
viability, T/C (compound 3.16 µM): 0.38%
viability, T/C (compound 10 µM): 0.16%
pIC50 (curve of compound): 6.50

SMILES: CC(=O)O[C@H]1C(=O)[C@@]2(C)[C@H]([C@H](OC(=O)c3ccccc3)[C@]3(O)C[C@H](OC(=O)[C@H](O)[C@@H](NC(=O)c4ccccc4)c4ccccc4)C(C)=C1C3(C)C)[C@]1(OC(C)=O)CO[C@@H]1C[C@@H]2O
viability, T/C (compound 0.0316 µM): 92.9% and 82.9% and 90.8%
viability, T/C (compound 0.1 µM): 76.1% and 66.3% and 52.6%
viability, T/C (compound 0.316 µM): 68.9% and 81.9% and 51.9%
viability, T/C (compound 1 µM): 68.7% and 43.9% and 69.8%
viability, T/C (compound 3.16 µM): 68.5% and 44.5% and 67.8%
viability, T/C (compound 10 µM): 65.1% and 53.1% and 63.9%

Further lines, with some results ahead:

pIC50 (curve of compound): < 5.00
SMILES: C=CC(=O)N1CCN(c2nc(=O)n(-c3c(C)ccnc3C(C)C)c3nc(-c4c(O)cccc4F)c(F)cc23)C(C)C1 (centres undefined)
viability, T/C (compound 0.0316 µM): 113% and 111% and 86%
viability, T/C (compound 0.1 µM): 96% and 101% and 88.2%
viability, T/C (compound 0.316 µM): 127% and 125% and 132%
viability, T/C (compound 1 µM): 106% (2×) and 75.7%
viability, T/C (compound 3.16 µM): 134% and 124% and 116%
viability, T/C (compound 10 µM): 110% and 131% and 101%

pIC50 (curve of compound): < 5.00 and 5.53
SMILES: CC1COCCN1c1cc(C2(S(C)(=N)=O)CC2)nc(-c2ccnc3[nH]ccc23)n1 (centres undefined)
viability, T/C (compound 0.0316 µM): 98.5% and 112% and 88.4%
viability, T/C (compound 0.1 µM): 87.1% and 109% and 69.1%
viability, T/C (compound 0.316 µM): 88.4% and 79.8% and 94%
viability, T/C (compound 1 µM): 83.2% and 81.4% (2×)
viability, T/C (compound 3.16 µM): 65.6% and 80.9% and 47.6%
viability, T/C (compound 10 µM): 51.2% and 79.8% and 42%
